In brackets after ≈: the same amount, converted by molar mass. Read-outs that look alike come from different tables or passages of the source. Bounds are passed on as bounds.

A word on the IC50: it is the concentration needed to halve the response being measured. The term IC90 denotes the concentration at which the effect reaches the 90% level. What is called fraction unbound is free concentration divided by total concentration. A low value points to extensive binding. What is called Papp B→A is the apparent permeability from the basolateral to the apical side of a cell layer. As usually defined, the Papp A→B is the apparent permeability from the apical to the basolateral side of a cell layer. The low end stands for poor permeation, the high end for ready permeation. For orientation: solubility means how much of the substance goes into solution per volume. Higher therefore signals a readily soluble substance.

In data set [1] the test system is Mtb H37Rv. As to the kind of experiment: Primary screen: MIC, IC50 and IC90 under aerobic conditions. Format: cell-based. Conditions: Mycobacterium tuberculosis.
The next data set has as its system NRP Mtb H37Rv. Kind of data set: microbe, parasite or virus in culture. Format: cell-based. To be noted: Mycobacterium tuberculosis.
The conditions of data set [2]: Human plasma, equilibrium dialysis.
Data set [3] in a line: in vitro. To be noted: human.
Data set [4] is described as follows: Caco-2 cell monolayer permeability assay. To be noted: human. In general terms: Caco-2 monolayers are a common model of the intestinal barrier.
A further data set is described as follows: HepG2 cytotoxicity. It counts as cell-based. Conditions: human, HepG2 cells.
Data set [5] is described as follows: in vitro. Conditions: human. The source holds these as a separate data set.
Data set [6] in a line: In vitro microsomal stability assay. Conditions: Human, 1 μM.
Data set [7] concerns Mtb H37Rv. As to the kind of experiment: Secondary assay: MIC, IC50 and IC90 repeated at lower starting concentrations. To be noted: Mycobacterium tuberculosis; for MIC: read-out: MIC aerobic condition. It counts as cell-based.
Data set [8] concerns Mtb H37Rv. As to the kind of experiment: Minimal bactericidal concentration. It counts as cell-based, Mycobacterium tuberculosis. To be noted: Mtb H37Rv aerobic.
In another data set the test system is Mycobacterium avium. Kind of data set: MIC against nontuberculous mycobacteria, Alamar blue. Format: cell-based. Conditions: Mycobacterium avium. On the technique in general: Alamar Blue is a resazurin reagent that responds to reducing activity.
Another data set has as its system Mycobacterium abscessus. As to the kind of experiment: MIC, IC50, IC90 against nontuberculous mycobacteria. To be noted: for IC50 / IC90 / MIC: Mycobacteroides abscessus. Format: cell-based.
In a further data set the test system is intracellular Mtb H37Rv. As to the kind of experiment: microbe, parasite or virus in culture. It counts as cell-based. Conditions: Mycobacterium tuberculosis; for IC50: THP-1, read-out: IC50 intracell; for IC90: THP-1, read-out: IC90 intracell.
The next data set is described as follows: physchem. Conditions: aqueous with cosolvent or surfactant or cyclodextrin, kinetic from dmso stock.

`O=C(C[n+]1ccn(Cc2cccc(Cn3cc[n+](CC(=O)c4ccccc4)c3)n2)c1)c1ccccc1` [Compound 4c, 1,1′-(pyridine-2,6-diylbis(methylene))bis(3-(2-oxo-2-phenylethyl)-1H-imidazol-3-ium) bromide]: in the data set with Mtb H37Rv [1], the IC50 was over 200 µM, the IC90 was over 200 µM and the MIC was over 200 µM.

As to `Cc1ncc([N+](=O)[O-])n1CCO` [Metronidazole, reference compound], in the data set on NRP Mtb H37Rv (Low oxygen), the IC50 came to 29 µM, the IC90 amounted to 110 µM and the MIC is 200 µM (≈ 34.2 µg/mL). Also, in the data set on NRP Mtb H37Rv (Normal oxygen), the IC50 was over 200 µM, the IC90 is over 200 µM and the MIC is over 200 µM.

As for `CC(C)NCC(O)COc1cccc2ccccc12` (stereo not shown) [Propranolol, reference compound], the “Mean plasma fraction bound” value in data set [2] stood at 79.3%. The compound further had a recovery in the data set “in vitro [3]” of 93%. Also, the fraction unbound in the data set “in vitro [3]” (plasma) is 0.207. In data set [4] (Caco-2), this compound gave a basolateral-to-apical permeability (Papp B→A) of 25 ×10⁻⁶ cm/s. The same compound displayed a Papp A→B in data set [4] (Caco-2, Mean A→B Papp, Caco-2, apical to basal) of 12.7 ×10⁻⁶ cm/s.

In the data set with Mtb H37Rv [1], `O=C(C[n+]1cn(Cc2cccc(Cn3c[n+](CC(=O)c4ccc(Cl)cc4)c4ccccc43)n2)c2ccccc21)c1ccc(Cl)cc1` [Compound 6e, 1,1′-(pyridine-2,6-diylbis(methylene))bis(3-(2-(4-chlorophenyl)-2-oxoethyl)-1H-benzo[d]imidazol-3-ium) bromide] registered an IC50 of 7.9 µM, an IC90 of 18 µM and an MIC of 17 µM.

In the data set with Mtb H37Rv [1], `NC(=O)C[n+]1ccn(Cc2cccc(Cn3cc[n+](CC(N)=O)c3)n2)c1` [Compound 4b, 1,1′-(pyridine-2,6-diylbis(methylene))bis(3-(2-amino-2-oxoethyl)-1H-imidazol-3-ium) iodide] returned an IC50 of over 200 µM, an IC90 of over 200 µM and an MIC of over 200 µM.

`CN[C@@H]1C[C@H]2O[C@@](C)([C@@H]1OC)n1c3ccccc3c3c4c(c5c6ccccc6n2c5c31)C(=O)NC4` [Staurosporine, reference compound] registered an IC50 at 72 h in “HepG2 cytotoxicity” of 0.0086 µM. The IC50 in “in vitro [5]” is 0.018 µM.

Take `O=C(C[n+]1ccn(Cc2cccc(Cn3cc[n+](CC(=O)c4ccc(Cl)cc4)c3)n2)c1)c1ccc(Cl)cc1` [Compound 4e, 1,1′-(pyridine-2,6-diylbis(methylene))bis(3-(2-(4-chlorophenyl)-2-oxoethyl)-1H-imidazol-3-ium) bromide]: in the data set with Mtb H37Rv [1], 34 µM corresponded to half-maximal inhibition (IC50), it took 63 µM to reach the 90% level (IC90) and the MIC came to 51 µM.

With `NC(=O)C[n+]1cn(Cc2cccc(Cn3c[n+](CC(N)=O)c4ccccc43)n2)c2ccccc21` [Compound 6b, 1,1′-(pyridine-2,6-diylbis(methylene))bis(3-(2-amino-2-oxoethyl)-1H-benzo[d]imidazol-3-ium) iodide], in the data set on Mtb H37Rv [1], the IC50 is 180 µM, the 90% effect concentration (IC90) is over 200 µM and the MIC was over 200 µM.

As to `COc1ccc(C(=O)C[n+]2ccn(Cc3cccc(Cn4cc[n+](CC(=O)c5ccc(OC)cc5)c4)n3)c2)cc1` [Compound 4g, 1,1′-(pyridine-2,6-diylbis(methylene))bis(3-(2-(4-methoxyphenyl)-2-oxoethyl)-1H-imidazol-3-ium) bromide], in the data set with Mtb H37Rv [1], it took 160 µM to reach half-maximal inhibition (IC50), the IC90 was over 200 µM and the MIC is over 200 µM.

With `COc1ccc2c(c1)[C@]13CCCC[C@@H]1[C@H](C2)N(C)CC3` [Dextromethorphan, reference compound], in data set [6], the “NADPH-free CLint” value is under 12.8 µL/min/mg and the “NADPH-free T1/2” value was over 3 h.

For `CC(=O)CC(c1ccccc1)c1c(O)c2ccccc2oc1=O` (stereo not shown) [Warfarin], the recovery in data set [2] is listed as 96.7.

In the case of `COC(=O)C[n+]1ccn(Cc2cccc(Cn3cc[n+](CC(=O)OC)c3)n2)c1` [Compound 4a, 1,1′-(pyridine-2,6-diylbis(methylene))bis(3-(2-methoxy-2-oxoethyl)-1H-imidazol-3-ium) bromide], in the data set on Mtb H37Rv [1], the IC50 is over 200 µM, the IC90 is over 200 µM and the MIC was over 200 µM.

In the data set with Mtb H37Rv [1], `COC(=O)C[n+]1cn(Cc2cccc(Cn3c[n+](CC(=O)OC)c4ccccc43)n2)c2ccccc21` [Compound 6a, 1,1′-(pyridine-2,6-diylbis(methylene))bis(3-(2-methoxy-2-oxoethyl)-1H-benzo[d]imidazol-3-ium) bromide] gave an IC50 of over 200 µM, an IC90 of over 200 µM and an MIC of over 200 µM.

Regarding `O=C(C[n+]1ccn(Cc2cccc(Cn3cc[n+](CC(=O)c4ccc([N+](=O)[O-])cc4)c3)n2)c1)c1ccc([N+](=O)[O-])cc1.[Br-].[Br-]` [Compound 4f, 1,1′-(pyridine-2,6-diylbis(methylene))bis(3-(2-(4-nitrophenyl)-2-oxoethyl)-1H-imidazol-3-ium) bromide], the IC50 with Mtb H37Rv [1] was 38 µM; with Mtb H37Rv [7] it was 45 µM; in the data set with NRP Mtb H37Rv (Low oxygen), 25 µM; with NRP Mtb H37Rv (Normal oxygen) it was 49 µM; in the data set with Mycobacterium abscessus, 89 µM; in the data set with intracellular Mtb H37Rv, 26 µM. Also, the IC50 in “in vitro [5]” was over 50 µM. The IC90 came to 71 µM in the data set with Mtb H37Rv [1]; 140 µM with Mtb H37Rv [7]; 65 µM in the data set on NRP Mtb H37Rv (Low oxygen); 78 µM with NRP Mtb H37Rv (Normal oxygen); 97 µM with Mycobacterium abscessus; 48 µM with intracellular Mtb H37Rv. Also, the MIC was 58 µM against Mtb H37Rv [1]; 104 µM with Mtb H37Rv [7]; 183 µM in the data set on NRP Mtb H37Rv (Low oxygen); 129 µM against NRP Mtb H37Rv (Normal oxygen); over 200 µM in the data set with Mycobacterium avium; 110 µM in the data set on Mycobacterium abscessus. Moreover, in the data set with Mtb H37Rv [8], the “mechanism of action (bacteriostatic or bactericidal)” value is “bactericidal”. For the same compound, the “activity against M. abscessus (in words)” value in the data set with Mycobacterium abscessus was “showed activity”.

Take `NNC(=O)c1ccncc1` [Isoniazid, reference compound]: in the data set on intracellular Mtb H37Rv, the IC50 was found to be 0.23 µM and the IC90 is 0.29 µM.

For the compound `O=[N+]([O-])c1cn(Cc2cccc(Cn3cnc([N+](=O)[O-])c3)n2)cn1` [Compound 2b, 2,6-bis((4-nitro-1H-imidazol-1-yl)methyl)pyridine], the concentration for half-maximal inhibition (IC50) in the data set on Mtb H37Rv [1] was 77 µM; in the data set on Mtb H37Rv [7], 93 µM; in the data set on NRP Mtb H37Rv (Low oxygen) it was 26 µM; in the data set with NRP Mtb H37Rv (Normal oxygen), over 200 µM; with intracellular Mtb H37Rv it was over 200 µM; in “in vitro [5]”, over 50 µM. The concentration for an effect of 90% (IC90) was 100 µM in the data set with Mtb H37Rv [1]; 100 µM in the data set on Mtb H37Rv [7]; 91 µM with NRP Mtb H37Rv (Low oxygen); over 200 µM with NRP Mtb H37Rv (Normal oxygen); over 200 µM in the data set on intracellular Mtb H37Rv. Besides, the MIC against Mtb H37Rv [1] is 92 µM (≈ 30.3 µg/mL); in the data set on Mtb H37Rv [7], 101 µM (≈ 33.3 µg/mL); in the data set with NRP Mtb H37Rv (Low oxygen), 200 µM (≈ 65.9 µg/mL); against NRP Mtb H37Rv (Normal oxygen) it was over 200 µM.

In the case of `CO[C@H]1/C=C/O[C@@]2(C)Oc3c(C)c(O)c4c(O)c(c(/C=N/N5CCN(C)CC5)c(O)c4c3C2=O)NC(=O)/C(C)=C\C=C\[C@H](C)[C@H](O)[C@@H](C)[C@@H](O)[C@@H](C)[C@H](OC(C)=O)[C@@H]1C` [Rifampicin, reference compound], the IC50 in the data set on Mtb H37Rv [7] was determined as 0.004 µM; with NRP Mtb H37Rv (Low oxygen), 0.0041 µM; in the data set on Mycobacterium abscessus, 2.1 µM. Also, the IC90 stood at 0.0077 µM in the data set with Mtb H37Rv [7], 0.0065 µM with NRP Mtb H37Rv (Low oxygen) and 3.1 µM in the data set with Mycobacterium abscessus. Also, the MIC in the data set with Mtb H37Rv [7] was 0.0063 µM (≈ 0.00518 µg/mL); in the data set with NRP Mtb H37Rv (Low oxygen) it was 0.13 µM (≈ 0.107 µg/mL); with NRP Mtb H37Rv (Normal oxygen) it was 0.096 µM (≈ 0.079 µg/mL); against Mycobacterium avium, over 200 µM; against Mycobacterium abscessus, 3.3 µM (≈ 2.72 µg/mL).

As for `O=C(C[n+]1cn(Cc2cccc(Cn3c[n+](CC(=O)c4ccccc4)c4ccccc43)n2)c2ccccc21)c1ccccc1.[Br-].[Br-]` [Compound 6c, 1,1′-(pyridine-2,6-diylbis(methylene))bis(3-(2-oxo-2-phenylethyl)-1H-benzo[d]imidazol-3-ium) bromide], the IC50 in the data set with Mtb H37Rv [1] was 25 µM; in the data set on Mtb H37Rv [7], 34 µM; in the data set on NRP Mtb H37Rv (Low oxygen) it was 16 µM; in the data set on NRP Mtb H37Rv (Normal oxygen), 17 µM; with Mycobacterium abscessus it was 120 µM; with intracellular Mtb H37Rv, 37 µM. The same compound had an IC50 in the data set “in vitro [5]” of over 50 µM. The IC90 was 60 µM with Mtb H37Rv [1]; 110 µM in the data set on Mtb H37Rv [7]; 130 µM in the data set on NRP Mtb H37Rv (Low oxygen); 60 µM with NRP Mtb H37Rv (Normal oxygen); 200 µM in the data set with Mycobacterium abscessus; over 50 µM in the data set with intracellular Mtb H37Rv. Also, the MIC is 56 µM against Mtb H37Rv [1]; 87 µM with Mtb H37Rv [7]; 200 µM against NRP Mtb H37Rv (Low oxygen); over 200 µM against NRP Mtb H37Rv (Normal oxygen); over 200 µM against Mycobacterium avium; over 200 µM against Mycobacterium abscessus. In addition, in the data set with Mtb H37Rv [8], the “mechanism of action (bacteriostatic or bactericidal)” value is on record as “bactericidal”. Moreover, the “activity against M. abscessus (in words)” value in the data set on Mycobacterium abscessus is reported as “showed activity”.

In the data set on Mtb H37Rv [1], `COc1ccc(C(=O)C[n+]2cn(Cc3cccc(Cn4c[n+](CC(=O)c5ccc(OC)cc5)c5ccccc54)n3)c3ccccc32)cc1` [Compound 6g, 1,1′-(pyridine-2,6-diylbis(methylene))bis(3-(2-(4-methoxyphenyl)-2-oxoethyl)-1H-benzo[d]imidazol-3-ium) bromide] came in with an MIC of 58 µM.

Consider `c1cc(Cn2ccnc2)nc(Cn2ccnc2)c1` [Compound 2a, 2,6-bis((1H-imidazol-1-yl)methyl)pyridine], for which, in the data set with Mtb H37Rv [1], the IC50 was over 200 µM, the IC90 was over 200 µM and the MIC is over 200 µM. Also, the solubility in the data set “physchem” was over 200 µM.
